Results published in patent publication US20240228476A1, “INHIBITORS OF PROTEIN TYROSINE PHOSPHATASE, COMPOSITIONS, AND METHODS OF USE” (BRISTOL-MYERS SQUIBB COMPANY, priority 2022, published 2024).

Key:
[1] = biological target: T1, PTPN2 (Homo sapiens, UniProt P17706); assay: PTPN2 biochemical assay (PhosphoSens, substrate AQT0264); details: PhosphoSens substrate AQT0264 20 μM, room temperature; read-out: PTPN2 BCHEM IC50
T1 sequence (P17706 1-415): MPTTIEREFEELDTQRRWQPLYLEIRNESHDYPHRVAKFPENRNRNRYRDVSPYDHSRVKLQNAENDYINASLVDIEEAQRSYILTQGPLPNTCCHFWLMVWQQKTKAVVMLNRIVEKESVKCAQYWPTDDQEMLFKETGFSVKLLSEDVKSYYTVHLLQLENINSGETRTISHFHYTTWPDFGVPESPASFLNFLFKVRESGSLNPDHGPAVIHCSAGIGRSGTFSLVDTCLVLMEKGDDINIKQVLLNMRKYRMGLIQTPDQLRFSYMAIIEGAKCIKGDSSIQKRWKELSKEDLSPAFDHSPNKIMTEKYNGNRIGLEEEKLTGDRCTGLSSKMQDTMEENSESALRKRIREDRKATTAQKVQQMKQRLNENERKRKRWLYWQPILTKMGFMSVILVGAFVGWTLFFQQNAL
Description: A PhosphoSens® kinase assay was performed as described by the vendor (AssayQuant Technologies, Marlborough, MA). Briefly, 1000× solutions of compounds were prepared in DMSO via serial dilution of the 10 mM DMSO stocks using 3-fold intervals in a 384-well reagent plate. 50 nL of the compound dilution series was then added to the corresponding wells of a 384-well assay plate. 40 mL of 1.25× substrate (AQT0264) in 1× assay buffer (50 mM HEPES pH 7.5, 500 μM EGTA, […] MgCl2, 0.01% Brij-35, 1% Glycerol, 1 mM DTT, and 0.2 mg/mL BSA) was transferred to each well of the assay plate to achieve a final substrate concentration of 20 μM. Finally, […] of 5×PTPN2 enzyme stock was added to each well of the assay plate for a final enzyme concentration of […]. Reaction progress curves were collected by sampling fluorescence intensity at the excitation wavelength 360 nm (λex360) and emission wavelength 480 nm (λem480) every 71 seconds for one hour using a Synergy H4 plate reader (BioTek Instruments/Agilent Technologies, Winooski, VT) at room temperature.
(§1) For IC50 data, High DDT concentration and/or DiFMUP substrate assays were used; a skilled artisan may use either assay.

[2] = biological target: T1, PTPN2; assay: Phosphatase activity assay using DiFMUP as substrate; assay type: biochemical; parameters: purchased MilliporeSigma SRP5075; details: 10 mM DTT, PTPN2 0.15 nM, room temperature, read-out: PTPN2 BCHEM DIFMUP IC50
Description: The PTPN2 biochemical assay was performed as follows, a 5× stock solution of human PTPN2 (SRP5075, MilliporeSigma, Burlington, MA) and a 1.25× stock solution of DiFMUP (D6567, ThermoFisher Scientific, Waltham, MA), were prepared in 1× reaction buffer consisting of 50 mM HEPES, pH 7.4, 1 mM EDTA, 150 mM NaCl, 0.2 mg/mL BSA, 100 U/mL catalase and 10 mM DTT. […] of the DiFMUP substrate solution, for a final concentration of […] DiFMUP substrate, was added to a Corning 3574 384-well, white, non-binding surface microtiter plate containing […] of serially diluted test compounds prepared in DMSO. The reactions were started with the addition of […] of the enzyme solution, for a final PTPN2 concentration of 0.15 nM, and monitored every 105 seconds for 60 minutes at λEX 360/λEM 460 in a BioTek Synergy HTX plate reader (Agilent Technologies, Santa Clara, CA) at room temperature. The initial linear portions of the progress curves were fit according to a linear equation to yield the slopes and converted to % inhibition based on a value of 100% activity for the no inhibitor treated control. IC50 values of each compound were obtained by fitting the % inhibition-compound concentration curves using Dotmatics software (Dotmatics, Bishops Stortford, Hertfordshire, England)
as §1

[3] = tested on: phospho-STAT1 (Tyr701); assay: Phospho-STAT1 (Tyr701) HTRF assay in B16-F10 cells; assay type: cell-based; details: mouse IFN-gamma 100 ng/ml, 1 hour, read-out: pSTAT1 HTRF B16 EC50
Description: B16-F10 cells (ATCC, Manassas, VA, #CRL-6475) were cultured in DMEM growth medium (ThermoFisher Scientific, Waltham, MA, #11995-040) supplemented with 10% heat inactivated FBS (ThermoFisher Scientific, #16140-071) and 1% pen/strep (ThermoFisher Scientific, #15140-122). The cells were seeded into a white opaque 384-well tissue culture treated microplate (PerkinElmer, Waltham, MA, #6007688) at a density of 10,000 cells/well in 20 uL total volume and incubated overnight at 37 C and 5% CO2. 30 nL of compounds dissolved in DMSO were then transferred from a source plate into target wells with the Echo650 acoustic liquid handler (Beckman Coulter, Indianapolis, IN). Negative control wells received 30 nL of DMSO only (0.15% final concentration). Plates were returned to the incubator for 1 hour and then cells treated with either 5 uL of growth medium or 5 uL of growth medium containing 500 ng/ml of recombinant mouse IFN-gamma protein (R&D Systems, Minneapolis, MN, #485-MI/CF, 100 ng/ml final concentration) using the Assist automated pipetting platform (INTEGRA Biosciences, Hudson, NH). Plates were incubated at 37 C for 1 hour and assayed for phosphorylated STAT1 protein levels with the phospho-STAT1 (Tyr701) HTRF kit (Cisbio, Bedford, MA, #63ADK026PEH) according to manufacturer's instructions. HTRF signal intensity was collected with the En Vision 2105 plate reader (PerkinElmer) 24 hours later and analyzed with the Dotmatics software platform to calculate compound IC50 values.

[4] = tested on: B16-F10 cells; assay: Cell proliferation assay (CellTiter-Glo) in B16-F10 cells with IFN-gamma; assay type: cell-based; details: 120 h, mouse IFN-gamma 10 ng/mL, read-out: PTPN2 Prolif 5d B16F10 EC50
Description: B16-F10 cells (ATCC, Manassas, VA, #CRL-6475) were cultured in DMEM growth medium (ThermoFisher Scientific, Waltham, MA, #11995-040) supplemented with 10% heat inactivated FBS (ThermoFisher Scientific, #16140-071) and 1% pen/strep (ThermoFisher Scientific, #15140-122). The cells were seeded into two white opaque 384-well tissue culture treated microplates (PerkinElmer, Waltham, MA, #6007688) at a density of 100 cells/well in 20 uL total volume and incubated overnight at 37 C and 5% CO2. 30 nL of compounds dissolved in DMSO were then transferred from a source plate into target wells with the Echo650 acoustic liquid handler (Beckman Coulter, Indianapolis, IN). Negative control wells received 30 nL of DMSO only (0.15% final concentration). Plates were returned to the incubator for 1 hour and then cells treated with either 5 uL of growth medium or 5 uL of growth medium containing 50 ng/ml of recombinant mouse IFN-gamma protein (R&D Systems, Minneapolis, MN, #485-MI/CF, 10 ng/mL final concentration) using the Assist automated pipetting platform (INTEGRA Biosciences, Hudson, NH). Plates were incubated at 37 C for 4 days and cell proliferation assayed with the CellTiter-Glo reagent (Promega, Madison, WI, #G7573, 25 uL per well). […] Off-target compound mediated cytotoxicity was identified by checking for growth inhibition in the absence of IFNg.

SMILES	IC50 [1]	IC50 [2]	EC50 [3]	EC50 [4]
Cc1cc(NCc2cc(O)c(N3CC(=O)NS3(=O)=O)c(F)c2)cc(C)n1 [EXAMPLE 2, 5-[4-[[(2,6-dimethyl-4-pyridyl)amino]methyl]-2-fluoro-6-hydroxy-phenyl]-1,1-dioxo-1,2,5-thiadiazolidin-3-one]	10 nM	50 nM	14000 nM	6000 nM
CC(C)(C)c1ccc(Oc2ccc(NCc3cc(O)c(N4CC(=O)NS4(=O)=O)c(F)c3)cn2)cc1 [EXAMPLE 31, 5-[4-[[[6-(4-tert-butylphenoxy)-3-pyridyl]amino]methyl]-2-fluoro-6-hydroxy-phenyl]-1,1-dioxo-1,2,5-thiadiazolidin-3-one]	20 nM	60 nM	> 15000 nM	> 15000 nM
O=C1CN(c2c(O)cc(CNc3cncc(C(F)(F)F)c3)cc2F)S(=O)(=O)N1 [EXAMPLE 7, 5-[2-fluoro-6-hydroxy-4-[[[5-(trifluoromethyl)-3-pyridyl]amino]methyl]phenyl]-1,1-dioxo-1,2,5-thiadiazolidin-3-one]	40 nM	100 nM	2300 nM	3130 nM
Cc1cc(NCc2cc(O)c(N3CC(=O)NS3(=O)=O)c(F)c2)nc(C)n1 [EXAMPLE 17, 5-[4-[[(2,6-dimethylpyrimidin-4-yl)amino]methyl]-2-fluoro-6-hydroxy-phenyl]-1,1-dioxo-1,2,5-thiadiazolidin-3-one]	20 nM	50 nM	1880 nM	2210 nM
Cc1ncc(C)c(NCc2cc(O)c(N3CC(=O)NS3(=O)=O)c(F)c2)n1 [EXAMPLE 27, 5-[4-[[(2,5-dimethylpyrimidin-4-yl)amino]methyl]-2-fluoro-6-hydroxy-phenyl]-1,1-dioxo-1,2,5-thiadiazolidin-3-one]	40 nM	30 nM	8600 nM	10100 nM
Cc1ccnc(C)c1NCc1cc(O)c(N2CC(=O)NS2(=O)=O)c(F)c1 [EXAMPLE 3, 5-[4-[[(2,4-dimethyl-3-pyridyl)amino]methyl]-2-fluoro-6-hydroxy-phenyl]-1,1-dioxo-1,2,5-thiadiazolidin-3-one]	90 nM	60 nM	6160 nM	5370 nM
N#Cc1cncc(NCc2cc(O)c(N3CC(=O)NS3(=O)=O)c(F)c2)c1 [EXAMPLE 4, 5-[[3-fluoro-5-hydroxy-4-(1,1,4-trioxo-1,2,5-thiadiazolidin-2-yl)phenyl]methylamino]pyridine-3-carbonitrile]	44 nM	11 nM	1850 nM	1650 nM
Cc1nccc(NCc2cc(O)c(N3CC(=O)NS3(=O)=O)c(F)c2)n1 [EXAMPLE 24, 5-[2-fluoro-6-hydroxy-4-[[(2-methylpyrimidin-4-yl)amino]methyl]phenyl]-1,1-dioxo-1,2,5-thiadiazolidin-3-one]	30 nM	30 nM	790 nM	4280 nM

Further molecules by falling IC50 [1], results first:

IC50 [1]	IC50 [2]	EC50 [3]	EC50 [4]	SMILES
50 nM	110 nM	> 15000 nM	> 15000 nM	Cc1cnc(C)c(NCc2cc(O)c(N3CC(=O)NS3(=O)=O)c(F)c2)n1 [EXAMPLE 18, 5-[4-[[(3,6-dimethylpyrazin-2-yl)amino]methyl]-2-fluoro-6-hydroxy-phenyl]-1,1-dioxo-1,2,5-thiadiazolidin-3-one]
30 nM	210 nM	490 nM	1290 nM	N#Cc1cnc(NCc2cc(O)c(N3CC(=O)NS3(=O)=O)c(F)c2)nc1 [EXAMPLE 9, 2-[[3-fluoro-5-hydroxy-4-(1,1,4-trioxo-1,2,5-thiadiazolidin-2-yl)phenyl]methylamino]pyrimidine-5-carbonitrile]
30 nM	30 nM	> 15000 nM	> 15000 nM	Cc1c(NCc2cc(O)c(N3CC(=O)NS3(=O)=O)c(F)c2)ccnc1-c1ccc(C(C)(C)C)cc1 [EXAMPLE 15, 5-[4-[[[2-(4-tert-butylphenyl)-3-methyl-4-pyridyl]amino]methyl]-2-fluoro-6-hydroxy-phenyl]-1,1-dioxo-1,2,5-thiadiazolidin-3-one]
10 nM	20 nM	1920 nM	1550 nM	COc1cncc(NCc2cc(O)c(N3CC(=O)NS3(=O)=O)c(F)c2)n1 [EXAMPLE 23, 5-[2-fluoro-6-hydroxy-4-[[(6-methoxypyrazin-2-yl)amino]methyl]phenyl]-1,1-dioxo-1,2,5-thiadiazolidin-3-one]
10 nM	100 nM	650 nM	410 nM	O=C1CN(c2c(O)cc(CNc3ccc(C4CC4)nc3)cc2F)S(=O)(=O)N1 [EXAMPLE 10, 5-[4-[[(6-cyclopropyl-3-pyridyl)amino]methyl]-2-fluoro-6-hydroxy-phenyl]-1,1-dioxo-1,2,5-thiadiazolidin-3-one]
4 nM	20 nM	1200 nM	470 nM	Cc1cc(NCc2cc(O)c(N3CC(=O)NS3(=O)=O)c(F)c2)ncn1 [EXAMPLE 26, 5-[2-fluoro-6-hydroxy-4-[[(6-methylpyrimidin-4-yl)amino]methyl]phenyl]-1,1-dioxo-1,2,5-thiadiazolidin-3-one]
